This is an account of results in US10377753B2, “Substituted 4-azaindoles and their use as GluN2B receptor modulators” (Janssen Pharmaceutica NV, priority 2015, dated 2019).

For orientation: IC50 means the concentration at which inhibition is half-maximal.

Counter-ions that a name gives are not always drawn.

For this test, the target named is cloned human NR1/NR2B ion channels (Homo sapiens (Human), UniProt Q05586+Q13224). As to the kind of experiment: HNR2BC: effects of test articles on cloned human NR1/NR2B ion channels expressed in mammalian cells (FLIPR calcium flux). The class given is cell-based. Particulars: Table 5. As to the method: HNR2BC: Effects of Test Articles on Cloned Human NR1/NR2B Ion Channels Expressed in Mammalian Cells
Chain of cloned human NR1/NR2B ion channels (Q13224 27-1484, other chains not shown): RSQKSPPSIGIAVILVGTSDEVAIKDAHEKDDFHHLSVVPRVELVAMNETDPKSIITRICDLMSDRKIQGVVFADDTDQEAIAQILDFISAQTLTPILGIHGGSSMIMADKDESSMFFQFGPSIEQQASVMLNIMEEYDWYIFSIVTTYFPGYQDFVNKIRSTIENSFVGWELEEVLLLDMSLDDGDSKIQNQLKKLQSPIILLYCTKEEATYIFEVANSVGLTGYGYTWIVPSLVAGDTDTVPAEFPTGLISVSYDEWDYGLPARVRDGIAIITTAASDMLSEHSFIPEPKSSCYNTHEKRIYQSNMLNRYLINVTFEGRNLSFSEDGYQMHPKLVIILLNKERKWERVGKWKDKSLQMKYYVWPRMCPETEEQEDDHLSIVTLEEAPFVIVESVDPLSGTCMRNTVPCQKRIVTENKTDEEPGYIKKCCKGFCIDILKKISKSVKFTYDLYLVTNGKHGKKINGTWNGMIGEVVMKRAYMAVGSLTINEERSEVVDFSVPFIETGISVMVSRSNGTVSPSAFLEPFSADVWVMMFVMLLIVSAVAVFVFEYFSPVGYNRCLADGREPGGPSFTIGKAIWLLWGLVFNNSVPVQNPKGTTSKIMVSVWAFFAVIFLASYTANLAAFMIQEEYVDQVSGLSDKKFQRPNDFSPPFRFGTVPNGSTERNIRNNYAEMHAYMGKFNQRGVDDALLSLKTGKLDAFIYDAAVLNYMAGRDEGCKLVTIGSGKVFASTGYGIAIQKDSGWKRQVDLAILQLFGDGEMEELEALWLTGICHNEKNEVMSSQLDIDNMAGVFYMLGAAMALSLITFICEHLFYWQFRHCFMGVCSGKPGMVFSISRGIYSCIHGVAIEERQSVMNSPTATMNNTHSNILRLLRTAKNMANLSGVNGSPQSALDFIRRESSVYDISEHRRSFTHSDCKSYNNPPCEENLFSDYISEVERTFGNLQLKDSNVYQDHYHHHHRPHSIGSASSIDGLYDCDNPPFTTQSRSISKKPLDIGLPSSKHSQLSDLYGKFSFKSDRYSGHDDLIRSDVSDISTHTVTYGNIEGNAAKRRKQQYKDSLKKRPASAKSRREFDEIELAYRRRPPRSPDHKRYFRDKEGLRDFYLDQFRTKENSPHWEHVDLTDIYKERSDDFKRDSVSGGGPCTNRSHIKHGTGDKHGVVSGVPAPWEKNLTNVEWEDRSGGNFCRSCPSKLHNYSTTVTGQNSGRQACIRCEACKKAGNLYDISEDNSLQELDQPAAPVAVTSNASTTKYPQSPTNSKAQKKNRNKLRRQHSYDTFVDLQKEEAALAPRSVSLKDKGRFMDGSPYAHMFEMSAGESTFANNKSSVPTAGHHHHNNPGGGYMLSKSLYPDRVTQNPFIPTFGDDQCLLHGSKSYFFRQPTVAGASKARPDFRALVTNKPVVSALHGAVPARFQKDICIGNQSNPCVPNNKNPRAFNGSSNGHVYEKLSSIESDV
NMDA receptors are ion channels that are highly permeable to Ca^2+ ions, rendering it possible to monitor NMDA receptor function using cell-based calcium flux assay. In this assay, co-agonists glutamate and glycine are added to cells heterologously expressing human GluN1/GluN2B NMDA receptors to initiate cellular Ca^2+ influx. The time course of the changes in intracellular calcium is measured using a fluorescent dye and a FLIPR (Fluorometric Imaging Plate Reader) device.
Twenty four hours before measurements, the expression of the NMDA receptors in the stable cell line is induced with Tet-On inducible system in the presence of a non-selective NMDA receptor blocker. On the day of the experiment, cell culture media is carefully washed and the cells are loaded with Calcium 5 Dye Kit (Molecular Devices) in dye loading buffer containing 137 mM NaCl, 4 mM KCl, 2 mM CaCl2, 0.5 mM MgCl2, 10 mM HEPES and 5 mM D-glucose; pH 7.4. After 1 h incubation at the room temperature, the dye is washed away with the assay buffer (137 mM NaCl, 4 mM KCl, 2 mM CaCl2, 0.01 mM EDTA, 10 mM HEPES and 5 mM D-glucose; pH 7.4) In the FLIPR TETRA reader, various concentrations of the test compounds are added to the cells for 5 min while fluorescence is monitored to detect potential agonist activity. Next, co-agonists, glutamate and glycine are added for another 5 minutes. The concentration of glutamate corresponding to ˜EC80 is used to maximize the assay's signal window and ability to detect NMDA receptor antagonists and negative allosteric modulators. A saturating concentration (10 μM) of glycine is also present in the assay. […] The fluorescent signal in the presence of test compounds is quantified and normalized to the signal defined by the appropriate control wells.
A general note: A change in cytosolic calcium serves as a functional read-out for many receptors and channels.

The mark [1] stands for this setting: cloned human NR1/NR2B ion channels.

As for `O=C(Cn1ccc2ncc(-c3ccc(Cl)s3)cc21)N1CC(F)C1` [Example 372, 2-[6-(5-Chloro-2-thienyl)pyrrolo[3,2-b]pyridin-1-yl]-1-(3-fluoroazetidin-1-yl)ethanone], the IC50 under setting [1] was 15.8 nM.
For the compound `FC(F)(F)c1cccc(-c2cnc3ccn(Cc4cccnn4)c3c2)c1` [Example 613, 1-(Pyridazin-3-ylmethyl)-6-[3-(trifluoromethyl)phenyl]pyrrolo[3,2-b]pyridine], under setting [1], the IC50 is 2510 nM.
Turning to `CC(C)C(=O)Cn1cc(F)c2ncc(-c3ccc(Cl)s3)cc21` [Example 345, 1-[6-(5-Chloro-2-thienyl)-3-fluoro-pyrrolo[3,2-b]pyridin-1-yl]-3-methyl-butan-2-one], under “cloned human NR1/NR2B”, the IC50 was 31.6 nM.
On to `CN(C)C(=O)Cn1cc(Cl)c2ncc(-c3cc(F)c(F)c(F)c3)cc21` [Example 152, 2-[3-Chloro-6-(3,4,5-trifluorophenyl)pyrrolo[3,2-b]pyridin-1-yl]-N,N-dimethyl-acetamide], for which, under “cloned human NR1/NR2B”, the IC50 was 100 nM.
Still for that read-out and setting: to `O=C(Cn1ccc2ncc(-c3ccccc3)cc21)N1CCOCC1` [Example 85, 1-Morpholino-2-(6-phenylpyrrolo[3,2-b]pyridin-1-yl)ethanone] belongs 63.1 nM; to `CC(C)NC(=O)Cn1ccc2ncc(-c3ccc(F)cc3)cc21` [Example 229, 2-[6-(4-Fluorophenyl)pyrrolo[3,2-b]pyridin-1-yl]-N-isopropyl-acetamide], 501 nM.
For the compound `CCc1cccc(-c2cnc3ccn(CC(=O)C(C)C)c3c2)c1` [Example 224, 1-[6-(3-Ethylphenyl)pyrrolo[3,2-b]pyridin-1-yl]-3-methyl-butan-2-one], the concentration for half-maximal inhibition (IC50) (cloned human NR1/NR2B) was 398 nM.
`CCN(C)C(=O)Cn1cc(C)c2ncc(-c3ccccc3F)cc21` [Example 594, N-Ethyl-2-[6-(2-fluorophenyl)-3-methyl-pyrrolo[3,2-b]pyridin-1-yl]-N-methyl-acetamide]: under setting [1], the IC50 is 794 nM.
For the compound `CCc1cccc(-c2cnc3ccn(CC(=O)N4CCCC4)c3c2)c1` [Example 83, 2-[6-(3-Ethylphenyl)pyrrolo[3,2-b]pyridin-1-yl]-1-pyrrolidin-1-yl-ethanone], the IC50 (cloned human NR1/NR2B) was 251 nM.
As for `Cc1ccc(-c2cnc3c(F)cn(CC(=O)N(C)C)c3c2)s1` [Example 390, 2-[3-Fluoro-6-(5-methyl-2-thienyl)pyrrolo[3,2-b]pyridin-1-yl]-N,N-dimethyl-acetamide], the IC50 under setting [1] was 316 nM.
For `Cc1cc(Cn2ccc3ncc(-c4ccccc4C)cc32)no1` [Example 62, 5-Methyl-3-[[6-(o-tolyl)pyrrolo[3,2-b]pyridin-1-yl]methyl]isoxazole trifluoroacetate salt], where the note is “cloned human NR1/NR2B”, the IC50 is 126 nM.
Consider `O=C(Cn1cc(F)c2ncc(-c3cccc(Cl)c3)cc21)N1CCC1` [Example 478, 1-(Azetidin-1-yl)-2-[6-(3-chlorophenyl)-3-fluoro-pyrrolo[3,2-b]pyridin-1-yl]ethanone], for which the IC50 under setting [1] is 39.8 nM.
For the compound `Cc1cccc(-c2cnc3c(Cl)cn(CC(=O)NC4CC4)c3c2)c1` [Example 10, 2-[3-Chloro-6-(m-tolyl)pyrrolo[3,2-b]pyridin-1-yl]-N-cyclopropyl-acetamide], the half-maximal inhibitory concentration (IC50) (cloned human NR1/NR2B) is 50.1 nM.
Regarding `O=C(Cn1ccc2ncc(-c3ccc(F)cc3)cc21)c1ccccc1` [Example 226, 2-[6-(4-Fluorophenyl)pyrrolo[3,2-b]pyridin-1-yl]-1-phenyl-ethanone], under “cloned human NR1/NR2B”, the IC50 was 200 nM.
For `CN(C)C(=O)Cn1ccc2ncc(-c3ccc(F)c(C(F)(F)F)c3)cc21` [Example 436, 2-[6-[4-Fluoro-3-(trifluoromethyl)phenyl]pyrrolo[3,2-b]pyridin-1-yl]-N,N-dimethyl-acetamide], the IC50 under setting [1] is 79.4 nM.
As to `Cc1cccc(-c2cnc3c(C)cn(CC(=O)N4CCCC4)c3c2)c1F` [Example 565, 2-[6-(2-Fluoro-3-methyl-phenyl)-3-methyl-pyrrolo[3,2-b]pyridin-1-yl]-1-pyrrolidin-1-yl-ethanone], under setting [1], the IC50 was 126 nM.
For the compound `CCc1ccc(-c2cnc3c(Cl)cn(CC(=O)N4CCC4)c3c2)s1` [Example 408, 1-(Azetidin-1-yl)-2-[3-chloro-6-(5-ethyl-2-thienyl)pyrrolo[3,2-b]pyridin-1-yl]ethanone], the IC50 under setting [1] was 39.8 nM.
As for `CCc1cccc(-c2cnc3ccn(CC(=O)N4CCOCC4)c3c2)c1` [Example 91, 2-[6-(3-ethylphenyl)pyrrolo[3,2-b]pyridin-1-yl]-1-morpholino-ethanone], where the note is “cloned human NR1/NR2B”, the IC50 was 1580 nM.
With `Cc1cn(CC(=O)N(C)C)c2cc(-c3cc(F)cc(F)c3)cnc12` [Example 555, 2-[6-(3,5-Difluorophenyl)-3-methyl-pyrrolo[3,2-b]pyridin-1-yl]-N,N-dimethyl-acetamide], the concentration for half-maximal inhibition (IC50) under setting [1] is 63.1 nM.
Turning to `Cc1cc(Cn2ccc3ncc(-c4cc(F)cc(F)c4)cc32)no1` [Example 64, 3-[[6-(3,5-Difluorophenyl)pyrrolo[3,2-b]pyridin-1-yl]methyl]-5-methyl-isoxazole trifluoroacetate salt], under “cloned human NR1/NR2B”, the IC50 was 63.1 nM.
In the case of `O=C(Cn1cc(F)c2ncc(-c3cccc(F)c3)cc21)N1CCC1` [Example 506, 1-(Azetidin-1-yl)-2-[3-fluoro-6-(3-fluorophenyl)pyrrolo[3,2-b]pyridin-1-yl]ethanone], the IC50 under setting [1] is 15.8 nM.
As to `CN(C)C(=O)Cn1cc(F)c2ncc(-c3cccc(Cl)c3F)cc21` [Example 606, 2-[6-(3-Chloro-2-fluoro-phenyl)-3-fluoro-pyrrolo[3,2-b]pyridin-1-yl]-N,N-dimethyl-acetamide], the 50% inhibitory concentration (IC50) under setting [1] is 63.1 nM.
Still for that read-out and setting: to `O=C(Cn1cc(Cl)c2ncc(-c3ccc(F)c(Cl)c3)cc21)N1CCC1` [Example 527, 1-(Azetidin-1-yl)-2-[3-chloro-6-(3-chloro-4-fluoro-phenyl)pyrrolo[3,2-b]pyridin-1-yl]ethanone] belongs 50.1 nM.
On to `Cc1cc2ncc(-c3ccc(F)cc3)cc2n1CC(=O)N1CCCC1` [Example 37, 2-[6-(4-Fluorophenyl)-2-methyl-pyrrolo[3,2-b]pyridin-1-yl]-1-pyrrolidin-1-yl-ethanone], for which the IC50 (cloned human NR1/NR2B) is 1000 nM.
For the compound `Cc1csc(-c2cnc3c(Cl)cn(CC(=O)N4CC(F)C4)c3c2)c1` [Example 416, 2-[3-Chloro-6-(4-methyl-2-thienyl)pyrrolo[3,2-b]pyridin-1-yl]-1-(3-fluoroazetidin-1-yl)ethanone], under setting [1], the IC50 is 2510 nM.
Regarding `CN(C)C(=O)Cn1cc(F)c2ncc(-c3cccc(F)c3)cc21` [Example 510, 2-[3-Fluoro-6-(3-fluorophenyl)pyrrolo[3,2-b]pyridin-1-yl]-N,N-dimethyl-acetamide], under setting [1], the IC50 was 39.8 nM.
For the compound `O=C(Cn1ccc2ncc(-c3ccc(F)c(F)c3F)cc21)N1CCC1` [Example 118, 1-(Azetidin-1-yl)-2-[6-(2,3,4-trifluorophenyl)pyrrolo[3,2-b]pyridin-1-yl]ethanone], under “cloned human NR1/NR2B”, the IC50 is 100 nM.
Regarding `Cc1c(F)ccc(-c2cnc3ccn(CC(=O)N4CCC4)c3c2)c1F` [Example 452, 1-(Azetidin-1-yl)-2-[6-(2,4-difluoro-3-methyl-phenyl)pyrrolo[3,2-b]pyridin-1-yl]ethanone], the IC50 under setting [1] was 25.1 nM.
As for `Cc1cn(CC(=O)N(C)C)c2cc(-c3cc(F)c(F)c(F)c3)cnc12` [Example 571, N,N-Dimethyl-2-[3-methyl-6-(3,4,5-trifluorophenyl)pyrrolo[3,2-b]pyridin-1-yl]acetamide], the IC50 under setting [1] is 50.1 nM.
As for `O=C(Cn1ccc2ncc(-c3cccc(C(F)(F)F)c3F)cc21)N1CC(F)C1` [Example 267, 1-(3-Fluoroazetidin-1-yl)-2-[6-[2-fluoro-3-(trifluoromethyl)phenyl]pyrrolo[3,2-b]pyridin-1-yl]ethanone trifluoroacetate salt], the half-inhibitory concentration (IC50) (cloned human NR1/NR2B) is 39.8 nM.
The same measure, in the same setting: the figure for `O=C(Cn1cc(Cl)c2ncc(-c3ccccc3)cc21)N1CCCC1` [Example 4, 2-(3-Chloro-6-phenyl-pyrrolo[3,2-b]pyridin-1-yl)-1-pyrrolidin-1-yl-ethanone] is 50.1 nM; for `Cc1cc(-c2cnc3ccn(CC4CCO4)c3c2)ccc1F` (racemic) [Example 184, (R/S)-6-(4-Fluoro-3-methyl-phenyl)-1-(oxetan-2-ylmethyl)pyrrolo[3,2-b]pyridine trifluoroacetate salt] it is 501 nM; for `Cc1cc(-c2cnc3ccn(CC(=O)N4CCCC4(C)C)c3c2)ccc1F` [Example 200, 1-(2,2-Dimethylpyrrolidin-1-yl)-2-[6-(4-fluoro-3-methyl-phenyl)pyrrolo[3,2-b]pyridin-1-yl]ethanone trifluoroacetate salt] it is 251 nM.
For the compound `Cc1ccc(-c2cnc3c(Cl)cn(CC(=O)N4CC(F)C4)c3c2)s1` [Example 412, 2-[3-Chloro-6-(5-methyl-2-thienyl)pyrrolo[3,2-b]pyridin-1-yl]-1-(3-fluoroazetidin-1-yl)ethanone], the IC50 under setting [1] was 7940 nM.
`Cc1cn(CC(=O)N2CCC2)c2cc(-c3cc(F)cc(F)c3)cnc12` [Example 556, 1-(Azetidin-1-yl)-2-[6-(3,5-difluorophenyl)-3-methyl-pyrrolo[3,2-b]pyridin-1-yl]ethanone]: the IC50 under setting [1] was 398 nM.
